In assay [1] the test system is human glioma cell line U87 (wild type p53). As to the kind of experiment: MTS cell viability assay, U87 cells. The class given is cell-based. The note with it: three-day treatment, read-out: IC50 of growth inhibition.
Source text: The inhibition curves are averages of 3 independent measurements.
Assay [2] deals with T1, ^synMDMX (^24-108MDMX, p53-binding domain of MDMX) (Homo sapiens, UniProt O15151).
T1 construct: MDMX (^24-108MDMX or syn MDMX); made in house; host or cells: chemical synthesis (inferred from the prefix 'syn'; no expression host named)
T1 sequence (O15151 24-108): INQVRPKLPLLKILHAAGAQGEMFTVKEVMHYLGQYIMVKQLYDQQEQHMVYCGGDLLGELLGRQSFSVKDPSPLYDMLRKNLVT
As to the kind of experiment: competition SPR binding to synMDMX.

Another assay concerns normal cells. Particulars: cited from earlier work.

For orientation: IC50 means the concentration that inhibits the measured activity by half. On to `COc1ccc(C2=N[C@@H](c3ccc(Cl)cc3)[C@@H](c3ccc(Cl)cc3)N2C(=O)N2CCNC(=O)C2)c(OC(C)C)c1` [Nutlin-3], for which the concentration for half-maximal inhibition (IC50) in assay [1] was 3.8 µM.

In general, Kd refers to the equilibrium constant for the complex coming apart. A lower Kd goes with a tighter complex. For `CC(C)C[C@@H](NC(=O)[C@H]1CCCN1C(=O)[C@@H](Cc1c[nH]c2ccccc12)NC(=O)[C@@H](Cc1c[nH]c2ccccc12)NC(=O)[C@H](N)CC(=O)O)C(=O)N[C@H](C)C(=O)N[C@H](Cc1ccccc1)C(=O)N[C@H](CCC(=O)O)C(=O)N[C@H](C)C(=O)N[C@H](CC(C)C)C(=O)N[C@H](CC(C)C)C(=O)N[C@H](CCCNC(=N)N)C(=O)O` [^DPMI-γ], the Kd in assay [2] is 4.9 µM. Consider MI-219, for which, in the assay with normal cells, the “activation of the p53 pathway (accumulation of p53, increased MDM2 and p21)” value is recorded as “transient activation of the p53 pathway”; the “expression of PUMA and apoptosis” value is “fails to induce the expression of PUMA and apoptosis”.

The record behind these values is patent US20120328692A1, “POTENT D-PEPTIDE ANTAGONISTS OF MDM2 AND MDMX FOR ANTICANCER THERAPY” (UNIVERSITY OF MARYLAND, BALTIMORE, priority 2011, published 2012).
